Data reported in a melting point compilation (Tetko et al.; mined from patent text by program, amines drawn as free bases though some values may be those of a salt).

For CC(C)(C)c1ccc(OCC(O)CN2CCC3(CC2)CSC2=C(O3)c3cc(N4CCOCC4)ccc3C(=O)C2=O)cc1 (configuration not stated), the melting point was 107 to 109 °C.
Compound O=C(NOCC(=O)N1CCCC1C(=O)O)NN1CCCC1C(=O)O (configuration not stated) has a melting point of 157 to 160 °C.
Work on CC(=O)NCCc1ccc(NC(=O)C=C2CC(C(=O)O)Nc3cc(Cl)cc(Cl)c32)cc1 (racemic) yielded a melting point of 254 to 256 °C.
With O=C(O)c1c(-c2cccc([N+](=O)[O-])c2)oc2ncnc(O)c12 the melting point was greater than 300 °C.
Compound O=C(Cn1c(-c2ccc([N+](=O)[O-])cc2)ncc(NC(=O)OCc2ccccc2)c1=O)NC(Cc1ccccc1)C(=O)C(F)(F)F (configuration not stated) has a melting point of 117 to 121 °C.
O=C(Nc1ccc(F)cc1)N1CC=CCN1 gave a melting point of 100 to 101 °C.
In the case of O=C(C=P(c1ccccc1)(c1ccccc1)c1ccccc1)CCCc1ccccc1, the melting point is reported as 93 to 95 °C.
CN1CN(C)c2nc3n(Cc4ccc(F)cc4)c(=O)cc(O)n3c2C1=O gave a melting point of 214 to 232 °C.
Compound CC1(C)OC(=O)Nc2ccc(-c3ccc(N)nc3)cc21 has a melting point of 257 to 259 °C.
For CCN(c1nc(C)cc(C(=O)N2CCOCC2)n1)c1ccc(C(C)C)cc1Br, the melting point was 145 °C.
For CCOP(=O)(/C=C/c1cn(-c2ccccc2)nc1OCc1ccc(OCc2nc(-c3cccc(OCC(=O)O)c3)oc2C)c(OC)c1)OCC, the melting point was 166 to 168 °C.
Compound CSc1nc(-c2ccc(C#N)cc2)cn1-c1ccc(Br)cc1 has a melting point of 188 to 190 °C.
Work on Cc1ccc(C(=O)Nc2c(NC(=O)CN(C)C)ccc3c2C(=O)c2ccccc2C3=O)cc1 yielded a melting point of 190 to 191 °C.
CCN(CC)CCOC(=O)C1=C(C)NC(C)=C(c2nnco2)C1c1cccc(Cl)c1Cl (configuration not stated) showed a melting point of 142 to 144 °C.
Compound COc1ccccc1C1CCN(C[C@@H](CC2CCCCC2)NC(=O)C2CCCCC2)CC1 has a melting point of 100 to 103 °C.
Compound O=C(CC1c2ccccc2S(=O)(=O)C1c1ccccc1)NO (configuration not stated) has a melting point of 113 to 114 °C.
Cc1c(CCl)sc2cc(Br)ccc12 showed a melting point of 92 to 93 °C.
NC(CO)c1ccc(-c2ccc(SC(F)F)cc2)cc1 (configuration not stated) showed a melting point of 108 to 110 °C.
In the case of CCOC(=O)c1cc(=O)c2[nH]ncc2[nH]1, the melting point is reported as 287 to 292 °C.
Cc1ccc(S(=O)(=O)OCC2COc3ccc(N)c(C=NO)c3O2)cc1 (configuration not stated) showed a melting point of 164 to 166 °C.
Cn1nc(-c2cnc3[nH]cc(C(=O)NC4CCCOC4)c3n2)c2ccc(Cl)cc21 (configuration not stated) showed a melting point of 320 to 323 °C.
For CNC(=O)c1ccc(N2CCN(Cc3cc4c(c(OC)c3)OC(C)C(=O)N4)CC2)c(F)c1 (configuration not stated), the melting point was 241 to 244 °C.
COCC1CN(c2ccc3cc(OCCS(C)(=O)=O)ccc3c2)C(=O)O1 (configuration not stated) gave a melting point of 128 to 129 °C.
Work on CCOC(=O)c1c(Cl)nc2cscc2c1Cl yielded a melting point of 79 °C.
In the case of Cc1ccnc(N2CCN(C(=O)CCCC3Cn4c(-c5cc(C)c(O)c(C)c5)c(C)c5cccc(c54)O3)CC2)c1 (configuration not stated), the melting point is reported as 112 °C.
With COC(=O)C[C@@H](N)c1ccc(NC(=O)Cc2ccc(NC(=O)Nc3ccccc3C)c(OC)c2)cc1 the melting point was 189 to 191 °C.
Work on CC(C)Oc1ccc(NC(=O)C2(Cl)CC2)cc1C(F)(F)F yielded a melting point of 106 to 108 °C.
Clc1ccc(Cn2ccc3cc(OCc4nnn[nH]4)ccc32)cc1 showed a melting point of 162 to 163 °C.
Compound Oc1ccc(N2CCN(c3ccncc3)CC2)cc1 has a melting point of 288 to 290 °C.
O=C1CCCN1C1=CC(CF)(CF)Oc2ccc(C(F)(F)C(F)(F)F)cc21 showed a melting point of 104 to 105 °C.
Work on CC(NC(=O)OC(C)(C)C)C1CCN(c2c(F)cc3c(=O)[nH]c(=O)n4c3c2CCC4C)C1 (configuration not stated) yielded a melting point of 123 to 125 °C.
With COc1ccc(CN2C(=O)CCc3cc(O)c(OC)cc32)cc1 the melting point was 168 to 169 °C.
N#Cc1cnc2sc(S(=O)(=O)Cc3ccccc3)nn2c1=O showed a melting point of 219 to 221 °C.
For COc1ccccc1N1CCc2c1c1cccc(OC)c1[nH]c2=O, the melting point was 185 to 188 °C.
Work on CCCn1cc2c(C3C(=O)Nc4ccc(C)cc43)nc(Cl)nc2n1 (configuration not stated) yielded a melting point of 275 to 280 °C.
In the case of O=C(O)C(OCc1ccc(-c2ccc(Cl)cc2)cc1)c1ccccc1 (configuration not stated), the melting point is reported as 119 to 121 °C.
CNC(=C[N+](=O)[O-])SCc1ccc(CN(C)C)o1 gave a melting point of 101 to 103 °C.
For NC(=S)C(F)(F)c1ccccc1, the melting point was 99 to 100 °C.
For Nc1nc2c(s1)CCc1nc3ccccn3c1-2, the melting point was 249 °C.
In the case of N#Cc1ccc(Oc2nccc(-c3c(-c4ccc(F)cc4)ncn3C3CCNCC3)n2)cc1, the melting point is reported as 192 to 193 °C.
Cc1ccnc(Nc2nc(-c3cc(-c4ccc(Cl)cc4)no3)cs2)c1 showed a melting point of 209 to 211 °C.
COc1cc(C)c(NC(=O)CC(C)(C)C)c(C)c1Cc1ccc(C(C)C)cc1 gave a melting point of 181 to 182 °C.
Work on COc1nc(Cl)nc2c1c(C#N)cn2C1OC(CO)C(O)C1O (configuration not stated) yielded a melting point of 194 to 195 °C.
In the case of CCOC(=O)c1c(O)c2ccc(F)cc2c(=O)n1CC(C)C, the melting point is reported as 104 to 105 °C.
COC(Cn1ncc(-c2ccc(S(C)(=O)=O)cc2)c(-c2ccc(F)cc2)c1=O)c1ccccc1 (configuration not stated) showed a melting point of 135 to 137 °C.
Work on CCOC(=O)COc1cc(Cl)c2c(=O)c(-c3ccccc3C)coc2c1 yielded a melting point of 122 to 123 °C.
Compound CS(=O)(=O)c1ccc(C(CC2CCCC2)C(=O)Nc2ccccn2)cc1C#N (configuration not stated) has a melting point of 87 to 90 °C.
Compound CCCc1c(OCCCCCc2ccc3cc(OC)c(OC)cc3c2)ccc(C(=O)O)c1O has a melting point of 135 to 137 °C.
For CCNC(=O)c1cc(Br)sc1[Si](C)(C)C, the melting point was 96 to 98 °C.
Work on COCCCn1c(CO)cc2c3c(c(-c4ccccc4Cl)cc21)C(=O)NC3=O yielded a melting point of 187 to 189 °C.
O=C1c2cccc(Oc3ccc(Cl)cc3)c2C(=O)N1Cc1cccnc1 showed a melting point of 193 to 194 °C.
Work on CCOC(=O)N1CCc2nc3c(O)c(Br)cc(Br)c3c(C)c2CC1 yielded a melting point of 179 °C.
For COc1ccc(C(=O)N[C@H]2CCN(C)C[C@H]2c2ccc(OC)c(OC)c2)cc1 (relative stereo), the melting point was 223 to 226 °C.
With OCCCc1nc(-c2ccc(Cl)cc2)co1 the melting point was 41 to 42 °C.
Compound Cc1cc(C)c(Nc2nc(C)ccc2S(=O)(=O)c2ccc(C(=O)c3ccccc3)cc2)c(C)c1 has a melting point of 222 to 225 °C.
Compound O=C(O)C1C=Nc2c(cccc2[N+](=O)[O-])C1=O (configuration not stated) has a melting point of 263 to 265 °C.
In the case of Cc1cc(Nc2ncnc3ccc(-c4ccoc4)cc23)ccc1OCc1ccccn1, the melting point is reported as 206 to 208 °C.
O=S1(=O)NCC(O)c2ccsc21 (configuration not stated) gave a melting point of 138 to 140 °C.
CCO[C@@H](Cc1ccc(OCCc2nc(-c3ccc(C(F)(F)F)cc3)oc2C)c2ccccc12)C(=O)O gave a melting point of 153 to 155 °C.
With Cc1ccc(C#N)cc1C#N the melting point was 142 to 143 °C.
In the case of Cc1ccc(C)n1-c1cc(F)c(C2(O)CCSCC2)c(F)c1, the melting point is reported as 125 to 126 °C.
Work on NS(=O)(=O)c1c(S)cccc1C(F)(F)F yielded a melting point of 155 °C.
Compound CCNn1cc(C(=O)O)c(=O)c2cc3c(cc21)OCO3 has a melting point of 242 °C.
In the case of Cc1ccc(C(=O)N[C@@H]2COc3c(C)ccc(N4CCN(C)CC4)c3C2)cc1, the melting point is reported as 191 to 192 °C.
For CC(C)C1(c2ccccc2)OC(C(=O)OCc2cccnc2)=CC1=O (configuration not stated), the melting point was 109 to 110 °C.
Compound C=CCOC(=O)c1ccc(OC(=O)c2ccc(O[Si](C)(C)C(C)(C)C)c(C34CC5CC(CC(C5)C3)C4)c2)nc1 has a melting point of 130 to 132 °C.
With CC(=O)Nc1ccc(Br)c(C)n1 the melting point was 156 to 157 °C.
For CCS(=O)CCC(=O)NNC(=O)N1Cc2ccccc2Oc2ccc(Cl)cc21 (configuration not stated), the melting point was 185 to 188 °C.
CCC(C(N)=O)c1c(C(O)(C(F)(F)F)C(F)(F)F)ccc2ccccc12 (configuration not stated) showed a melting point of 189 to 190 °C.
With O=C(CCc1cc(-c2ccccc2)nc2ccccc12)N1CCCC1 the melting point was 116 °C.
Compound COc1cc2c3c(ccc([N+](=O)[O-])c3c1[N+](=O)[O-])C(=O)N(O)C2=O has a melting point of 272 to 273 °C.
CN(CCO)c1nc(-c2ccc(Cl)c(C(=O)NCC34CC5CC(CC(C5)C3)C4)c2)ccc1C(=O)O gave a melting point of 121 to 124 °C.
In the case of O=C(NCCN1CCCC1)c1ccc(-c2ccc3nnn(Cc4ccc5ncccc5c4)c3n2)cc1F, the melting point is reported as 183 to 186 °C.
In the case of O=C1C(Br)CCN1c1ccc(OCc2ccccc2)cc1 (racemic), the melting point is reported as 125 to 126 °C.
With O=C(NCc1cc(C(F)(F)F)cc(C(F)(F)F)c1)c1c(-c2ccccc2)c2cccnc2c(=O)n1CCCO the melting point was 129 to 130 °C.
Cc1[nH]c2ccc(F)cc2c1C(=O)Nc1ccc(N2CCC(O)CC2)c(C#N)c1 gave a melting point of 169 to 171 °C.
CCc1cc(Cl)cc(S(N)(=O)=O)c1N showed a melting point of 134 to 135 °C.
In the case of CCOC(=O)COCCN(C)C(=O)c1c(-c2ccc(C(C)(C)C)cc2)n(C)n(-c2ccc(C#N)cc2)c1=O, the melting point is reported as 192 to 194 °C.
For CCOc1cccc(CC(=O)O)c1OCCCc1cn(-c2ccc(C(F)(F)F)cn2)nc1OCC, the melting point was 114 to 115 °C.
For COc1ccc2c(c1)CN(C(C)=O)N=C2Cc1c(Cl)cncc1Cl, the melting point was 186 to 188 °C.
Compound CC12CCC3c4ccc(O)cc4CCC3C1CC(O)C2 (configuration not stated) has a melting point of 181 to 182 °C.
Work on Cc1cc(COc2ccc(Oc3ccc(Cl)cc3)cc2)n(O)c(=O)c1 yielded a melting point of 168 to 170 °C.
CC(C)(C)c1cc2c(c(C(C)(C)C)c1)OP(OC1CC(C)(C)N(OC3CCCCC3)C(C)(C)C1)Oc1c(cc(C(C)(C)C)cc1C(C)(C)C)C2 showed a melting point of 140 to 144 °C.
In the case of Cc1noc(-c2nnc3c4ccccc4c(OCc4ncn(C)n4)nn23)n1, the melting point is reported as 283 to 285 °C.
For CCCCOC1OC(CO)C(O)C(O)(N(CC2CCCCC2)C(=O)N(CCCl)N=O)C1O (configuration not stated), the melting point was 75 to 77 °C.
COc1ccc(-c2ccccc2)c(NC(=N)N2CCOCC2)c1 gave a melting point of 140 to 142 °C.
In the case of Oc1cccc(N2CCCC2)n1, the melting point is reported as 154 to 158 °C.
For CCCn1c(=O)c(-c2c(Cl)cccc2Cl)cc2cnc(N)nc21, the melting point was 196 to 197 °C.
Compound OC(=S)Cc1ccc(Cl)cc1 has a melting point of 106 °C.
For O=C(Nc1nc(-c2ccco2)c(C(=O)C2CCOCC2)s1)c1ccc(CN2CCCCC2)cc1, the melting point was 160 to 162 °C.
Compound COC(=O)C1=C(C)NC(C)=C(C(=O)OCCCl)C1c1cccc(Br)n1 (configuration not stated) has a melting point of 152 to 153 °C.
For Cc1[nH]n(-c2c(Cl)cc(C(F)(F)F)cc2Cl)c(=O)c1C=O, the melting point was 195 to 197 °C.
For CCOC(=O)C1=C(N(C)C)N=C(C)C(C(=O)OCC)C1c1ccccc1C (configuration not stated), the melting point was 88 °C.
Nc1c([N+](=O)[O-])sc2cccc(Cl)c12 gave a melting point of 174 to 175 °C.
With COC(=O)C1=C(C)NC(C)=C(C(=O)OC)C1c1ccc(OC)c(OC)c1 the melting point was 154 to 155 °C.
O=C(c1ccc(Br)cc1)C(Br)C(Br)c1cccc(Br)c1 (configuration not stated) showed a melting point of 150 to 152 °C.
For c1ccc(Sc2ccc(Sc3ccccc3)s2)cc1, the melting point was 47 to 48 °C.
